Measurements as given in patent publication US11235011B2, “Use of alphavirus in preparation of antitumor drugs” (GUANGZHOU VIROTECH PHARMACEUTICAL CO., LTD, priority 2014, dated 2022).
d = 2'-deoxy (DNA); r = 2'-OH (RNA)

Legend:
[1] = tested on: ZAP; assay: ZAP protein expression after ZAP RNA interference fragment (Western blot); assay type: cell-based, human
Procedure: The cells in the exponential growth phase were selected, and added into a DMEM complete medium (10% fetal bovine serum, 1% double antibody) to prepare a cell suspension, and the cells were inoculated into a 6-well plate at a density of 1×10^5/well. After 24 hours, Si RNA fragment wrapped with RNAiMAX was added. […] After 48 hours of the infection, the specimens were treated.

[2] = tested on: human ex vivo living liver cancer tissues; assay: Human ex vivo living tumor tissue culture, TECIA/MTT inhibition rate; assay type: cell-based; details: M1 virus 10^7 PFU, 5-Fu 10 mg/L, 96 hours
Procedure: (§1) The ex vivo living tissue was obtained by surgical excision in Tumor Prevention Center of Sun Yat-sen University, stored at 4 □, and then sent to the laboratory within four hours for drug sensitivity test. All the cases were confirmed by a histopathology examination. Under sterile condition, the tumor tissue was taken out, and cut into tissue pieces with a diameter of 0.5-1 mm, placed onto a 24-well culture plate (4-6 pieces per well), and 1 ml DMEM medium was added into each well. After one hour of culture, a projection illuminated image of the tumor tissue piece was taken by an image analyzer specialized for drug sensitivity test.
(§2) The tumor tissue was cultured in a CO2 cell incubator for 12 hours. […] After 96 hours of the infection treatment, MTT (5 mg/ml) was added at 50 μl/well, and cultured for 3 hours. A diffusion light illuminated image of the tumor tissue piece was then taken by an image analyzer specialized for drug sensitivity test, to determine the blue dyed area by formazan in the tumor piece in each well and the coloring degree (blue area, BA). Then the tissue survival rate (survival fraction, SF) was calculated according the following formula: […]

[3] = tested on: human ex vivo living colorectal cancer tissue; assay: as above; assay type: cell-based; details: M1 virus 10^7 PFU, 5-Fu 10 mg/L, 96 hours
Procedure: as §1, §2

| Compound | ZAP protein expression quantity ([1]; HCT116) | ZAP protein expression quantity ([1]; L-02) | ZAP protein expression quantity ([1]; PLC) | number of cases with inhibition rate (% control) >10% [2] | number of cases with inhibition rate (% control) ≤10% [2] | ratio of cases with inhibition rate (% control) >10% [2] [%] | ratio of cases with inhibition rate (% control) ≤10% [2] [%] | number of cases with inhibition rate (% control) >10% [3] | number of cases with inhibition rate (% control) ≤10% [3] | ratio of cases with inhibition rate (% control) >10% [3] [%] | ratio of cases with inhibition rate (% control) ≤10% [3] [%] |
| --- | --- | --- | --- | --- | --- | --- | --- | --- | --- | --- | --- |
| ZAP RNA interference fragment: ZAP interference fragment (Si RNA), sense strand SEQ ID No. 8, antisense strand SEQ ID No. 9 (sense CCAAGAGUAGCACUUGUUATT; antisense UAACAAGUGCUACUCUUGGTT; sugars from the 5' end r19 d2, backbone not given here) | undetectable level | undetectable level | undetectable level | – | – | – | – | – | – | – | – |
| O=c1[nH]cc(F)c(=O)[nH]1 [5-Fu, 5-fluorouracil] | – | – | – | 14 | 12 | 53.8 | 46.2 | 8 | 5 | 61.5 | 38.5 |
